target: T1, fatty acyl CoA: cholesterol acyl transferase (ACAT) (Rattus norvegicus, UniProt O70536); experiment: Inhibition of enzymatic esterification of cholesterol (ACAT), rat adrenal microsomal supernatant; format: biochemical; settings: final concentration of test compound 5.2 μg./ml.; percent inhibition of the ACAT enzyme compared to control values
T1 construct: Rat adrenals were homogenized; from tissue; host or cells: rat adrenals, 1,000 x g supernatant containing the microsomal fraction
T1 sequence (O70536 1-545): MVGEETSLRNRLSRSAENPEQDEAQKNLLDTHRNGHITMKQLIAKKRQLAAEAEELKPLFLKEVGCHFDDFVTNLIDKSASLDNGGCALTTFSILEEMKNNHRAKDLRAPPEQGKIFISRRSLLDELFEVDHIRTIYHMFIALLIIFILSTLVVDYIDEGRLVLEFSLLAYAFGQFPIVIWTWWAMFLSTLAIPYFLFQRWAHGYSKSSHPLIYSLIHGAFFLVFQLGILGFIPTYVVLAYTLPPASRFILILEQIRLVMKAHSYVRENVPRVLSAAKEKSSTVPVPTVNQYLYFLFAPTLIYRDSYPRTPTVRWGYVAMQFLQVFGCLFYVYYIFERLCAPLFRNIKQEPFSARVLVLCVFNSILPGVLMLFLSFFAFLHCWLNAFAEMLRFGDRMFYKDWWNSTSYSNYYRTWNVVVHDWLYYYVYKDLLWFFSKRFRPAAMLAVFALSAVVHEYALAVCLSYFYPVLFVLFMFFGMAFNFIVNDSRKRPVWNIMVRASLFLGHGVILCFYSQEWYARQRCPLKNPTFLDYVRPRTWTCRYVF
Method: The compounds of the present invention were tested for their ability to inhibit the enzymatic esterification of cholesterol according to the following procedure:
Rat adrenals were homogenized in 0.2M monobasic potassium phosphate buffer, pH 7.4, and centrifuged at 1,000 times gravity for 15 minutes at 5° C. The supernatant, containing the microsomal fraction, served as the source of the cholesterol-esterifying enzyme, fatty acyl CoA: cholesterol acyl transferase (ACAT). A mixture comprising 50 parts of adrenal supernatant, 10 parts of albumin (BSA) (50 mg./m.), […], 3 parts of test compound, and 500 parts of buffer was pre-incubated at 37° C. for 10 minutes. After treatment with 20 parts of oleoyl CoA (^14 C-0.4 μCi), the mixture was incubated at 37° C. for 10 minutes. A control mixture, omitting the test compound, was prepared and treated in the same manner. The lipids from the incubation mixture were extracted into an organic solvent and separated by thin-layer chromatography. The cholesterol ester fraction was counted in a scintillation counter. This procedure is a modification of that described by Hashimoto, et al. Life Scie., 12 (Part II), 1-12 (1973).
The results of this test on representative compounds of this invention appear in Table I. The final concentration of the test compound was 5.2 μg./ml., and effectiveness of the compound is expressed as percent inhibition of the ACAT enzyme compared to control values.

| Compound | inhibition at 5.2 µg/mL |
| --- | --- |
| O=C(O)c1ccc(N(CCCc2ccc(Cl)cc2)CCCc2ccc(Cl)cc2)cc1 [4-[Bis[3-(p-chlorophenyl)propyl]amino]benzoic acid] | 33% |
| O=C(O)c1ccc(NCC(c2ccc(Cl)cc2)c2ccc(Cl)cc2)cc1 [4-[[2,2-Bis(p-chlorophenyl)ethyl]amino]benzoic acid] | 19% |
| CCOC(=O)c1ccc(NCC=C(c2ccc(Cl)cc2)c2ccc(Cl)cc2)cc1 [4-[[3,3-Bis(p-chlorophenyl)allyl]amino]benzoic acid, ethyl ester] | 81% |
| O=C(O)c1ccc(NCC=C(c2ccc(Cl)cc2)c2ccc(Cl)cc2)cc1 [4-[[3,3-Bis(p-chlorophenyl)allyl]amino]benzoic acid] | 46% |
| CCOC(=O)c1ccc(NCCC(c2ccc(Cl)cc2)c2ccc(Cl)cc2)cc1 [4-[[3,3-Bis(p-chlorophenyl)propyl]amino]benzoic acid, ethyl ester] | 89% |
| O=C(O)c1ccc(NCCC(c2ccc(Cl)cc2)c2ccc(Cl)cc2)cc1 [4-[[3,3-Bis(p-chlorophenyl)propyl]amino]benzoic acid] | 21% |

The remaining lines, values ahead:

| inhibition at 5.2 µg/mL | Compound |
| --- | --- |
| 48% | CCOC(=O)c1ccc(N(CC)CCCc2ccc(Cl)cc2)cc1 [4-[[3-(p-Chlorophenyl)propyl]ethylamino]benzoic acid, ethyl ester] |
| 33% | CCN(CCCc1ccc(Cl)cc1)c1ccc(C(=O)O)cc1 [4-[[3-(p-Chlorophenyl)propyl]ethylamino]benzoic acid] |
| 53% | CCOC(=O)c1ccc(N(C)CCCc2ccc(Cl)cc2)cc1 [4-[[3-(p-Chlorophenyl)propyl]methylamino]benzoic acid, ethyl ester] |
| 24% | CN(CCCc1ccc(Cl)cc1)c1ccc(C(=O)O)cc1 [4-[[3-(p-Chlorophenyl)propyl]methylamino]benzoic acid] |
| 6% | O=C(O)c1ccc(NCc2ccc(Cl)cc2)cc1 [4-[[(p-chlorophenyl)methyl]amino]benzoic acid] |
| 55% | CCOC(=O)c1ccc(NC(c2ccc(Cl)cc2)c2ccc(Cl)cc2)cc1 [4-[[Bis(p-chlorophenyl)methyl]amino]benzoic acid, ethyl ester] |

Reference: patent US4489094A, “Arylalkylaminobenzoic acids” (American Cyanamid Company, priority 1983, dated 1984)
